# Test results from article PMC11908892 (ACS infectious diseases, 2025).
# “Also recorded” adds a separate entry of the source. Where two headings read alike, the source gives them in different places.
# What was measured:
# Bacillus subtilis = assay: Kirby-Bauer agar diffusion assay; assay type: cell-based
# SaDHFR = SaDHFR (Staphylococcus aureus, UniProt P0A017); assay type: biochemical; conditions: apparent IC50; purified S. aureus DHFR
# M. tuberculosis H37Rv = assay: Microplate alamar blue assay; assay type: cell-based; conditions: Mycobacterium tuberculosis
# E. coli ATCC 25922 [1] = assay: Broth microdilution susceptibility testing; assay type: cell-based; conditions: Escherichia coli, ATCC25922, read-out: Minimum Inhibitory Concentration (MIC90) E. coli ATCC 25922 − Thy
# S. aureus ATCC 11632 = assay: Broth microdilution susceptibility testing; assay type: cell-based; conditions: Staphylococcus aureus, ATCC11632, read-out: Minimum Inhibitory Concentration (MIC90) S. aureus ATCC 11632 − Thy
# Micrococcus luteus = assay: Kirby-Bauer agar diffusion assay; assay type: cell-based
# P. aeruginosa PAO1 = assay: Broth microdilution susceptibility testing; assay type: cell-based; conditions: Pseudomonas aeruginosa, PAO1, read-out: Minimum Inhibitory Concentration (MIC90) P. aeruginosa PAO1 − Thy
# M. abscessus L948 = assay: MABA assay in M. abscessus; assay type: cell-based; conditions: for IC50: Mycobacteroides abscessus, L948, read-out: Half-Maximal Inhibitory Concentration (IC50, μM) M. abscessus L948 MABA
# [2] = system: E. coli W3310ΔmscL::Kan, E. coli K12 W3310ΔmscS, E. coli W3310; assay type: cell-based; conditions: comparison between knock-out and WT strains
# S. aureus = assay: Kirby-Bauer agar diffusion assay; assay type: cell-based; conditions: both tested strains of S. aureus
# E. coli ATCC 25922 [3] = assay: SYTOX Green uptake assay; assay type: cell-based; conditions: any of the concentrations tested; melittin as positive control
# [4] = read-out: Minimum Inhibitory Concentration (MIC90, μM) M. tuberculosis H37Rv MABA: 7H12 Media
# [5] = read-out: Minimum Inhibitory Concentration (MIC90, μM) M. tuberculosis H37Rv MABA: GAST Media
# SaDHFR, sequence (P0A017 whole entry): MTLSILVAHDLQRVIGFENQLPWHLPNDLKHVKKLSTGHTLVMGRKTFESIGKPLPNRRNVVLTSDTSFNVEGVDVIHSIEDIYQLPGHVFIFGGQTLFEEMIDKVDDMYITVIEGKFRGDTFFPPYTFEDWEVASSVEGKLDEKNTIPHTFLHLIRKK
smiles,measurement,setting,value
"CC1(C)N=C(N)N=C(N)N1c1ccc(Cl)cc1 [CYC, cycloguanil]","susceptibility / activity in agar diffusion, B. subtilis",Bacillus subtilis,susceptible; also recorded: low activity
same,SaDHFR IC50 (μM ± SD),SaDHFR,did not inhibit and nf^a
same,MIC90,M. tuberculosis H37Rv; [4],74.8 µM
same,MIC90,M. tuberculosis H37Rv; [5],> 100 µM
same,MIC90,E. coli ATCC 25922 [1],> 128 µM
same,MIC90,S. aureus ATCC 11632,> 128 µM
same,"susceptibility / activity in agar diffusion, M. luteus",Micrococcus luteus,no activity
same,MIC90,P. aeruginosa PAO1,> 128 µM
same,"Half-Maximal Inhibitory Concentration (IC50, μM) M. abscessus L948 MABA",M. abscessus L948; MABA,no inhibition
same,IC50,M. abscessus L948,> 200 µM
same,"MIC values against E. coli ΔmscL, ΔmscS and WT parent strain set",[2],no significant differences
same,hemolysis,human erythrocytes,no detectable hemolysis
same,"activity in agar diffusion, S. aureus",S. aureus,no activity
same,SYTOX Green uptake,E. coli ATCC 25922 [3],no uptake
CC[C@H]1OC(=O)[C@H](C)[C@@H](O[C@H]2C[C@@](C)(OC)[C@@H](O)[C@H](C)O2)[C@H](C)[C@@H](O[C@@H]2O[C@H](C)C[C@H](N(C)C)[C@H]2O)[C@](C)(OC)C[C@@H](C)C(=O)[C@H](C)[C@@H](O)[C@]1(C)O [Clarithromycin],IC50,M. abscessus L948,15.4 µM
same,inhibition plateau in M. abscessus MABA,M. abscessus L948; plateau from 12.5–200 μM,~ 70%
NNC(=O)c1ccncc1 [Isoniazid],MIC90,M. tuberculosis H37Rv; [4],0.24 µM
same,MIC90,M. tuberculosis H37Rv; [5],0.12 µM
COc1c(N2C[C@@H]3CCCN[C@@H]3C2)c(F)cc2c(=O)c(C(=O)O)cn(C3CC3)c12 [Moxifloxacin],MIC90,M. tuberculosis H37Rv; [4],0.43 µM
same,MIC90,M. tuberculosis H37Rv; [5],0.042 µM
O=[N+]([O-])c1cn2c(n1)OC[C@@H](OCc1ccc(OC(F)(F)F)cc1)C2 [Pretomanid],MIC90,M. tuberculosis H37Rv; [4],0.38 µM
same,MIC90,M. tuberculosis H37Rv; [5],0.51 µM
CO[C@H]1/C=C/O[C@@]2(C)Oc3c(C)c(O)c4c(O)c(c(/C=N/N5CCN(C)CC5)c(O)c4c3C2=O)NC(=O)/C(C)=C\C=C\[C@H](C)[C@H](O)[C@@H](C)[C@@H](O)[C@@H](C)[C@H](OC(C)=O)[C@@H]1C [Rifampicin],MIC90,M. tuberculosis H37Rv; [4],0.05 µM
same,MIC90,M. tuberculosis H37Rv; [5],< 0.016 µM
[H]/N=C(/N)N[C@H]1[C@H](O)[C@@H](O)[C@H](O[C@@H]2O[C@@H](C)[C@](O)(C=O)[C@H]2O[C@@H]2O[C@@H](CO)[C@H](O)[C@@H](O)[C@@H]2NC)[C@@H](N/C(N)=N\[H])[C@@H]1O [Streptomycin],MIC90,M. tuberculosis H37Rv; [4],0.21 µM
same,MIC90,M. tuberculosis H37Rv; [5],0.27 µM
"COc1cc(Cc2cnc(N)nc2N)cc(OC)c1OC [TMP, trimethoprim]","MIC values against E. coli ΔmscL, ΔmscS and WT parent strain set",[2],no significant differences
same,SYTOX Green uptake,E. coli ATCC 25922 [3],no uptake
